Tests used:
Cytotoxicity, MTT assay = format: cell-based, human; details: human, MTT, 24 h
Description: These six series of antimicrobial compounds may be applied to daily or clinical disinfectants for unbroken skin and trauma, or agricultural fungicides alternatively. Thus, their cytotoxicity for skin or body tissues are crucial. In this study, the cytotoxicity of target compounds was evaluated for human immortalised epidermal (HaCat) and human normal liver (LO2) cell line using MTT assay. […] The IC50 values of 5a, 6a, 10a, 16a, 16 b were about more than 50 μg/mL for LO2 and HaCat.
Cytotoxicity Testing with MTT Method
Human immortalized epidermal cells (HaCat) line were cultured in Dulbecco’s modified Eagle’s medium containing 10% fetal bovine serum, 1% penicillin, and 1% streptomycin at 37°C in a 5% CO2/95% air incubator MCO-15AC (SANYO). Human normal liver cells (LO2) line were cultured in Roswell Park Memorial Institute medium containing 10% fetal bovine serum, 1% penicillin, and 1% streptomycin at 37°C in a 5% CO2/95% air incubator MCO-15AC (SANYO). HaCat or LO2 cells in 96-well plate were adjusted to 1.0 × 10^5 cells mL-1 and cells were passed and cell supernatant was pour out before plating on glass slide at 37°C, 5% CO2 for 24 h. Cells were pretreated with 100 μL QAS for 24 h and cell supernatant with QAS was pour out and washed with PBS buffer system. Then, the cells were treated with the MTT solution (MTT, 3-(4,5-dimethythiazol-2-yl)-2,5-diphenyl-tetrazolium bromide, 20 μL, 5 mg/mL) for 4 h. The dark blue formazan crystal formed in the intact cells was solubilized with dimethyl sulfoxide, and absorbance at 570 nm was measured with a microplate reader (Multiskan MK3-Thermo Labsystems, USA). The results were expressed as percentage of the control value from the normal cells without treatments of QAS. […]

Proteus vulgaris [1] = assay: MIC, broth tube dilution; format: cell-based; details: 12 h, 37℃, read-out: Minimal inhibitory concentration (MIC)
From the text: (§1) In this paper, antimicrobial activities of 24 QASs were detected by quantitative tests. […] Benzalkonium chloride (BZK) and chlorhexidine acetate (CA) was selected as positive controls. Representative compound POT-C12QAS (2) which synthesised and evaluated in previous work was also taken as a reference compound in MIC, MBC and cytotoxicity tests. […]
(§2) agriculture were used as target pathogens in this study, including three strains of Gram-positive bacteria (S. Aureus, α-H-tococcus, β-H-tococcus), three strains of Gram-negative bacteria (E. coli, P. aeruginosa, Proteus vulgaris) and four strains of fungi (Canidia albicans, Cytospora mandshurica, Physalospora piricola, Aspergillus niger). The antimicrobial tests were assayed, according to standard CLSI methods for antimicrobial dilution susceptibility tests to measure the minimum inhibitory concentration (MIC) and minimum bactericidal concentration (MBC)2.
(§3) A broth tube dilution method was followed to determine the MIC values for all the screened compounds against the micro-organisms, and for comparison benzalkonium chloride (BZK) and chlorhexidine acetate (CA) was used as a reference. For sample preparation, each of the test compounds and reference were dissolved in DMSO or sterile water at a concentration of 1600 μg/mL, and further dilutions of the compounds and reference in culture medium MHB (Muller-Hinton Broth) were prepared at the required quantities of 400, 200, 100 etc., down to 0.39 μg/mL. Bacterial strains and fungal strains were maintained on MHA (Muller-Hinton Agar) medium at 37℃ or 28 ℃ for 12 h or 72h, respectively. The microbial inocula were prepared by suspension in 10 mL of culture medium for colonies from culture on MHA. The cell density of each inoculum was adjusted in culture medium of a 0.5 McFarland standard (1-2×10^8 CFU/mL). The final amount applied was 10^5 CFU/mL for bacteria and fungi. The microbial inocula were added to the twofold diluted samples. One growth control tube was prepared […] the addition of the compound and one blank tube was prepared without the addition of the microorganism. MIC values were read after incubation at 37℃ or 28 ℃ for bacterial and fungal strains, respectively. After 12 h or 72h, the last tube with no growth of micro-organisms was recorded to represent the MIC value expressed in μg/ml. All experiments were carried out three times. […]

α-H-tococcus [2] = assay: MIC, broth tube dilution; format: cell-based; details: 12 h, 37℃, read-out: Minimal inhibitory concentration (MIC)
From the text: as §1, §2, §3

S. aureus [3] = assay: MIC, broth tube dilution; format: cell-based; details: Staphylococcus aureus, 12 h, 37℃, read-out: Minimal inhibitory concentration (MIC)
From the text: as §1, §2, §3

Cytospora mandshurica [4] = assay: MIC, broth tube dilution; format: cell-based; details: Cytospora, 72 h, 28 ℃, read-out: Minimal inhibitory concentration (MIC)
From the text: as §1, §2, §3

Canidia albicans [5] = assay: MIC, broth tube dilution; format: cell-based; details: 72 h, 28 ℃, read-out: Minimal inhibitory concentration (MIC)
From the text: as §1, §2, §3

β-H-tococcus = assay: MIC, broth tube dilution; format: cell-based; details: 12 h, 37℃, read-out: Minimal inhibitory concentration (MIC)
From the text: as §1, §2, §3

E. coli [6] = assay: MIC, broth tube dilution; format: cell-based; details: Escherichia coli, 12 h, 37℃, read-out: Minimal inhibitory concentration (MIC)
From the text: as §1, §2, §3

P. aeruginosa [7] = assay: MIC, broth tube dilution; format: cell-based; details: Pseudomonas aeruginosa, 12 h, 37℃, read-out: Minimal inhibitory concentration (MIC)
From the text: as §1, §2, §3

Physalospora piricola [8] = assay: MIC, broth tube dilution; format: cell-based; details: 72 h, 28 ℃, read-out: Minimal inhibitory concentration (MIC)
From the text: as §1, §2, §3

Aspergillus niger [9] = assay: MIC, broth tube dilution; format: cell-based; details: 72 h, 28 ℃, read-out: Minimal inhibitory concentration (MIC)
From the text: as §1, §2, §3

Proteus vulgaris [10] = assay: MBC, agar plating of dilutions without growth; format: cell-based; details: 99.9% bactericidal, read-out: Minimal bactericidal concentration (MBC)
From the text: as §1, §2, §3
(§4) was placed on agar plates in triplicate, and incubated at 37℃ or 28 ℃ for 12 h or 72h. The number of colonies on each plate was read, and the MBC was determined as the lowest concentration that achieved a 99.9% bactericidal in the agar plate.

α-H-tococcus [11] = assay: MBC, agar plating of dilutions without growth; format: cell-based; details: 99.9% bactericidal, read-out: Minimal bactericidal concentration (MBC)
From the text: as §1, §2, §3, §4

S. aureus [12] = assay: MBC, agar plating of dilutions without growth; format: cell-based; details: Staphylococcus aureus, 99.9% bactericidal, read-out: Minimal bactericidal concentration (MBC)
From the text: as §1, §2, §3, §4

Cytospora mandshurica [13] = assay: MBC, agar plating of dilutions without growth; format: cell-based; details: Cytospora, 99.9% bactericidal, read-out: Minimal bactericidal concentration (MBC)
From the text: as §1, §2, §3, §4

Canidia albicans [14] = assay: MBC, agar plating of dilutions without growth; format: cell-based; details: 99.9% bactericidal, read-out: Minimal bactericidal concentration (MBC)
From the text: as §1, §2, §3, §4

E. coli [15] = assay: MBC, agar plating of dilutions without growth; format: cell-based; details: Escherichia coli, 99.9% bactericidal, read-out: Minimal bactericidal concentration (MBC)
From the text: as §1, §2, §3, §4

P. aeruginosa [16] = assay: MBC, agar plating of dilutions without growth; format: cell-based; details: Pseudomonas aeruginosa, 99.9% bactericidal, read-out: Minimal bactericidal concentration (MBC)
From the text: as §1, §2, §3, §4

Physalospora piricola [17] = assay: MBC, agar plating of dilutions without growth; format: cell-based; details: 99.9% bactericidal, read-out: Minimal bactericidal concentration (MBC)
From the text: as §1, §2, §3, §4

Aspergillus niger [18] = assay: MBC, agar plating of dilutions without growth; format: cell-based; details: 99.9% bactericidal, read-out: Minimal bactericidal concentration (MBC)
From the text: as §1, §2, §3, §4

[19] = HaCat human immortalised epidermal cells, HaCat cells
[20] = LO2 human normal liver cells, LO2 cells

Structure (SMILES) | IC50 at 24 h (Cytotoxicity, MTT assay; [20]) [µg/mL] | MIC (Proteus vulgaris [1]) [µg/mL] | MIC (α-H-tococcus [2]) [µg/mL] | MIC (S. aureus [3]) [µg/mL] | MIC (Cytospora mandshurica [4]) [µg/mL] | MIC (Canidia albicans [5]) [µg/mL] | MIC (β-H-tococcus) [µg/mL] | MIC (E. coli [6]) [µg/mL] | MIC (P. aeruginosa [7]) [µg/mL] | MIC (Physalospora piricola [8]) [µg/mL] | MIC (Aspergillus niger [9]) [µg/mL] | MBC (Proteus vulgaris [10]) [µg/mL] | MBC (α-H-tococcus [11]) [µg/mL] | MBC (S. aureus [12]) [µg/mL] | MBC (Cytospora mandshurica [13]) [µg/mL] | MBC (Canidia albicans [14]) [µg/mL] | MBC (E. coli [15]) [µg/mL] | MBC (P. aeruginosa [16]) [µg/mL] | MBC (Physalospora piricola [17]) [µg/mL] | MBC (Aspergillus niger [18]) [µg/mL] | further results
C[N+](CCO)(CCO)CCCCCCCCCCSc1nnc(-c2ccc(C(F)(F)F)cc2)o1.[Br-] [Compound 6c] | 19.6 ± 1.62 | 25 | 12.5 | 25 | 12.5 | 25 | 6.25 | 25 | 50 | 3.12 | 12.5 | 25 | 12.5 | 25 | 12.5 | 25 | 25 | 50 | 3.12 | 12.5 | IC50 at 24 h (Cytotoxicity, MTT assay; [19]): 12.1 ± 1.57 µg/mL
C[N+](CCO)(CCO)CCCCCCCCCCCCSc1nnc(-c2ccc(C(F)(F)F)cc2)o1.[Br-] [Compound 6d] | 5.86 ± 0.61 | 25 | 6.25 | 6.25 | 6.25 | 12.5 | 3.12 | 25 | 50 | 1.56 | 6.25 | 25 | 6.25 | 12.5 | 6.25 | 12.5 | 25 | 50 | 1.56 | 6.25 | IC50 at 24 h (Cytotoxicity, MTT assay; [19]): 5.25 ± 0.37 µg/mL
C[N+](CCO)(CCO)CCCCCCCCCCCCSc1nc2ccccc2s1 [Compound 13d] | 8.96 ± 0.46 | ~25 | ~12.5 | ~6.25 | ~1.56 | ~6.25 | ~1.56 | ~25 | ~25 | ~3.12 | ~3.12 | 25 | 12.5 | 6.25 | ~6.25 | 6.25 | 25 | 25 | 3.12 | 6.25 | IC50 at 24 h (Cytotoxicity, MTT assay; HaCat cells): 6.02 ± 0.35 µg/mL

From paper PMC6010013, “Synthesis, physiochemical property and antimicrobial activity of novel quaternary ammonium salts” (Journal of Enzyme Inhibition and Medicinal Chemistry, 2017)
